In US20070088024A1, “Active substance combination comprising a carbinol combined to at least an NSAID” (LABORATORIOS DEL DR. ESTEVE S.A., priority 2004, published 2007):

Columns and labels:
male Swiss albino mice [1] = experiment: Writhing test in mice (phenylbenzoquinone-induced writhing reactions); assay type: in vivo; settings: for % Activity (inhibition of the writhing reactions): 60 minutes prior to phenylbenzoquinone; for ED50: p.o., in mg/kg
Description: The Writhing test for the determination of the analgesic activity of the inventive active substance combination is carried out according to the method described in the publication of E. Siegmund et al., Proc. Soc. Exp. Biol. Med. 1957, 95, 729-731 using male Swiss albino mice (20-25 g body weight, obtained from Harlan, S. Feliu de Codinas, Spain). The respective part of the description is hereby incorporated by reference and forms part of the respective disclosure.
The Writhing reactions are induced by intraperitoneal injection of phenylbenzoquinone (25 ml/kg in a 0.02% (volume/volume) ethanolic solution in a 5% (volume/volume) solution in destillated water with Evan's blue in an amount of 0.1% weight/volume) and the writhing reactions are counted during a 15 minute period following the injection. The substances to be tested are orally administered 60 minutes prior to the injection of the phenylbenzoquinone solution. The percentage of the inhibition of the writhing reactions is calculated on the basis of the control group as basis for 0% inhibition.

male Swiss albino mice [2] = experiment: Formaline test in mice; assay type: in vivo; settings: 40 mg/kg i.p.
Description: The Formaline test for the determination of the analgesic activity of the inventive active substance combination is carried out according to the method described in the publication of T. Ohkubo et al., J. Pharmacol. Exp. Ther. 1990, 252, 1261-1268 using male Swiss albino mice (20-25 g body weight, obtained from Harlan, S. Feliu de Codinas, Spain). The respective part of the description is hereby incorporated by reference and forms part of the respective disclosure.
The substances to be tested are intraperitoneally administered to the mice in 5% by weight solution of arabic gum in destined water as vehicle. 15 minutes later 20 μl of a 5% by weight solution of formaline in saline solution is injected into the back of the right paw of the animals. The total time in seconds of licking and/or biting the injected paw is registered in the acute phase, i.e. 0-5 minutes (phase I), and in the chronic phase, i.e. 15-30 (phase II), minutes after injection of the formaline.
The percentage of inhibition is calculated based on the medium values of the acute and chronic phases of the control group as 0% inhibition of the primary and secondary response.

SMILES	% Activity (inhibition of the writhing reactions) (male Swiss albino mice [1]; 40 mg/kg p.o.) [%]	% Activity (inhibition of the writhing reactions) (male Swiss albino mice [1]; 80 mg/kg p.o.) [%]	% Activity (inhibition of the writhing reactions) (male Swiss albino mice [1]; 160 mg/kg p.o.) [%]	ED50 (male Swiss albino mice [1])	% Activity Phase I (male Swiss albino mice [2]; acute phase 0-5 minutes) [%]	% Activity Phase II (male Swiss albino mice [2]; chronic phase 15-30 minutes) [%]
CN(C)CCO[C@H](c1ccccc1)c1ccnn1C.O=C(O)Cc1ccccc1Nc1c(Cl)cccc1Cl [R-(+)-Cizolirtine diclofenacate, R-(+)-5-[α-[2-(Dimethylamino)ethoxy]benzyl]-1-methyl-1H-pyrazole diclofenacate]	14.7	57.3	72.1	84		
CC(C)Cc1ccc([C@H](C)C(=O)O)cc1.CN(C)CCO[C@H](c1ccccc1)c1ccnn1C [R-(+)-Cizolirtine ibuprofenate, R-(+)-5-[α-[2-(Dimethylamino)ethoxy]benzyl]-1-methyl-1H-pyrazole S-(+)-ibuprofenate]	15.9	45	80.9	84.8		
CN(C)CCO[C@H](c1ccccc1)c1ccnn1C.COc1ccc2cc([C@H](C)C(=O)O)ccc2c1 [R-(+)-Cizolirtine naproxenate, R-(+)-5-[α-[2-(Dimethylamino)ethoxy]benzyl]-1-methyl-1H-pyrazole naproxenate]	32.0	52.0	77.3	71.29	49	36
CN(C)CCO[C@@H](c1ccccc1)c1ccnn1C.COc1ccc2cc([C@H](C)C(=O)O)ccc2c1 [S-(−)-Cizolirtine naproxenate, S-(−)-5-[α-[2-(Dimethylamino)ethoxy]benzyl]-1-methyl-1H-pyrazole naproxenate]	26.7	52.4	68.5	82.15		
CN(C)CCO[C@@H](c1ccccc1)c1ccnn1C [S-(−)-Cizolirtine, S-(−)-5-[α-[2-(Dimethylamino)ethoxy]benzyl]-1-methyl-1H-pyrazole]	29.0	49.7	59.7	95.26		
